Measured values from US20110218199A1, “PYRIDONEAMIDE DERIVATIVES, THEIR MANUFACTURE AND USE AS PHARMACEUTICAL AGENTS” (priority 2007, published 2011).

Key:
FAK Kinase Domain (KD) = biological target: T1, FAK Kinase Domain (KD) (Homo sapiens, UniProt Q05397); experiment: IC50 determination for inhibitors of FAK (ELISA-type assay); assay type: biochemical; settings: FAK kinase domain from baculo Sf9, biotinylated FAK-397 peptide, 10 μM ATP, 30 min, read-out: IC50 FAK inhibition
T1 construct: FAK Kinase Domain (KD) from baculo Sf9 was used; made in house; host or cells: baculovirus / Sf9 insect cells

HCT 116 cells = experiment: CellTiter-Glo assay in HCT 116 cells (antiproliferative activity); assay type: cell-based; settings: Homo sapiens, HCT-116, 120 h, CellTiter-Glo cell viability, HCT 116 human colon carcinoma, 5 days (120 h) incubation
Description: Antiproliferative Activity:
CellTiter-Glo™ Assay in HCT 116 Cells:
The CellTiter-Glo™ Luminescent Cell Viability Assay (Promega) is a homogeneous method of determining the number of viable cells in culture based on quantitation of the ATP present, which signals the presence of metabolically active cells.
HCT 116 cells (human colon carcinoma, ATCC-No. CCl-247) were cultivated in RPMI 1640 medium with GlutaMAX• I (Invitrogen, Cat-No. 61870-010), 5% Fetal Calf Serum (FCS, Sigma Cat-No. F4135 (FBS)); 100 Units/ml penicillin/100 μg/ml streptomycin (=Pen/Strep from Invitrogen Cat. No. 15140). For the assay the cells were seeded in 384 well plates, 1000 cells per well, in the same medium. The next day the test compounds were added in various concentrations ranging from 30 μM to 0.0015 μM (10 concentrations, 1:3 diluted). After 5 days the CellTiter-Glo™ assay was done according to the instructions of the manufacturer (CellTiter-Glo™ Luminescent Cell Viability Assay, from Promega). In brief: the cell-plate was equilibrated to room temperature for approximately 30 minutes and than the CellTiter-Glo™ reagent was added. The contents were carefully mixed for 15 minutes to induce cell lysis. After 45 minutes the luminescent signal was measured in Victor 2, (scanning multiwell spectrophotometer, Wallac).
1st. Day: • Medium: RPMI 1640 with GlutaMAX™ I (Invitrogen, Cat-Nr. 61870), 5% FCS (Sigma Cat.-No. F4135), Pen/Strep (Invitrogen, Cat No. 15140). • HCT116 (ATCC-No. CC1-247): 1000 cells in 60 μl per well of 384 well plate (Greiner 781098, μClear-plate white) • After seeding incubate plates 24 h at 37° C., 5% CO2
2nd. Day: Induction (Treatment with Compounds, 10 Concentrations):
In order to achieve a final concentration of 30 μM as highest concentration 3.5 μl of 10 mM compound stock solution were added directly to 163 μl media. Then step e) of the dilution procedure described below, was followed.
In order to achieve the second highest to the lowest concentrations, a serial dilution with dilution steps of 1:3 was followed according to the procedure (a-e) as described here below: • a) for the second highest concentration add 10 μl of 10 mM stock solution of compound to 20 μl dimethylsulfoxide (DMSO) • b) dilute 8×1:3 (always 10 μl to 20 μl DMSO) in this DMSO dilution row (results in 9 wells with concentrations from 3333.3 μM to 0.51 μM) • c) dilute each concentration 1: 47.6 (3.5 μl compound dilution to 163 μl media) • d) add 10 μl of every concentration to 60 μl media in the cell plate resulting in final concentration of DMSO: 0.3% in every well and resulting in 10 final concentration of compounds ranging from 30 μM to 0.0015 μM. • Each compound is tested in triplicate. • Incubate 120 h (5 days) at 37° C., 5% CO2 […]
Add 30 μl CellTiter-Glo™ Reagent (prepared from CellTiter-Glo™ Buffer and CellTiter-Glo™ Substrate (lyophilized) purchased from Promega) per well, shake 15 minutes at room temperature incubate further 45 minutes at room temperature without shaking
Victor 2 scanning multiwell spectrophotometer (Wallac), Luminescence mode (0.5 sec/read, 477 nm) Determine IC50 using a non-linear curve fit (XLfit software (ID Business Solution Ltd., Guilford, Surrey, UK))

T1 sequence (Q05397 422-680 limits assumed, species assumed): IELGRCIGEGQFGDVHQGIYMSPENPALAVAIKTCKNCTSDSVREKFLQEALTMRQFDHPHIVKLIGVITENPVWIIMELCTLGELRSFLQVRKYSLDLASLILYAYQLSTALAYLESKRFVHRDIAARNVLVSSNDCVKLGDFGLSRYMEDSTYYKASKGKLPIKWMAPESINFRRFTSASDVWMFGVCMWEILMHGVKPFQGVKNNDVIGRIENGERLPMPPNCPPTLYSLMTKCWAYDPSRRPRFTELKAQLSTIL

| IC50 (FAK Kinase Domain (KD)) | IC50 (HCT 116 cells) | SMILES |
| --- | --- | --- |
| 93 nM |  | O=C(Nc1cccc(N2CCCC2)c1)c1c(NC[C@@H](O)c2ccccc2)cc[nH]c1=O [Example 2d, 4-((S)-2-Hydroxy-2-phenyl-ethylamino)-2-oxo-1,2-dihydro-pyridine-3-carboxylic acid (3-pyrrolidin-1-yl-phenyl)-amide] |
| 143 nM | 7460 nM | O=C(Nc1ccc(N2CCOCC2)c(F)c1)c1c(NCc2ccccn2)cc[nH]c1=O [Example 1, 2-Oxo-4-[(pyridin-2-ylmethyl)-amino]-1,2-dihydro-pyridine-3-carboxylic acid(3-fluoro-4-morpholin-4-yl-phenyl)-amide] |
